What was measured:
GR = target: T1, GR (Homo sapiens, UniProt P04150); experiment: Luciferase reporter assay for GR (HeLa cells); format: cell-based; conditions: 0.4 μM, 1 nM dexamethasone
T1 construct: host or cells: HeLa
T1 sequence (P04150 1-777): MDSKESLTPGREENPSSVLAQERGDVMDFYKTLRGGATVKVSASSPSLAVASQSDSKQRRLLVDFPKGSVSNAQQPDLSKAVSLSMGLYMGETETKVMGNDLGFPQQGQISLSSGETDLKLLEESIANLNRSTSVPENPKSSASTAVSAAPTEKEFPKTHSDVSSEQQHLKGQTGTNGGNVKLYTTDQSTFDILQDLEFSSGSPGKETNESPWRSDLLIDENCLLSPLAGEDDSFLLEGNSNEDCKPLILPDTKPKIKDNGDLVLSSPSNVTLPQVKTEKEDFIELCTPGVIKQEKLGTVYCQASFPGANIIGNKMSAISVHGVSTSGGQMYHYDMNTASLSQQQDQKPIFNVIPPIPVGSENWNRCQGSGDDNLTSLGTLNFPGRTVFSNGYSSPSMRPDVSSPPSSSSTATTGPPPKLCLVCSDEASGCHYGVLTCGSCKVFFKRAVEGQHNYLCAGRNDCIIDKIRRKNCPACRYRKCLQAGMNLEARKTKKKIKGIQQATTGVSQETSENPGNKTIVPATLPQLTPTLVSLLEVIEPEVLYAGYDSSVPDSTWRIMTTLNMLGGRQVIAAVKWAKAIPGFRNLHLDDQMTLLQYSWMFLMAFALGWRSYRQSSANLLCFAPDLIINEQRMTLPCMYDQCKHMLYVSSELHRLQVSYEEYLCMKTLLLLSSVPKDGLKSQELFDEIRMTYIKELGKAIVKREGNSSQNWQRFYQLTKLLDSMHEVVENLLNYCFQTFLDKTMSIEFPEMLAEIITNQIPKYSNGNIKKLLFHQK
Protocol: calculating volume (V= 0.5 × L × W2). Finally, the mice were sacrificed and the tumors were harvested for hematoxylin and eosin (H&E) staining.
(§1) Luciferase Reporter Assays for PR, GR, and MR
Addgene), 24 ng pGL4.36[luc2P MMTV Hygro] (Promega) and 5 ng Renilla using HG- […]
Addgene), 24 ng pGL4.36[luc2P MMTV Hygro] (Promega) and 5 ng Renilla using lip3000 transfection reagent (#L3000075, Thermofisher) for 24 h. For MR induction, HEK293T (1 × 10^4 cells/well) were transfected with 71 ng pCMV-MR gifted by Liu et al. 28, 24 ng of pGL4.36[luc2P MMTV Hygro] (Promega) and 5 ng Renilla using lip3000 transfec tion reagent for 24 h. For the antagonistic models, 10 nM /well progesterone for PC3 cells , 1 nM/well dexamethasone for HeLa, and 5 nM/well aldosterone for HEK293T cells were added to stimulate the cells. Meanwhile, each cell line was treated […]
For the agonistic models, the cells were directly treated with the compounds without any hormones. […]
hormones progesterone, dexamethasone, and aldosterone were considered as agonists for PR, GR, and MR, respectively. The luciferase activities were assessed using the Dual-Glo Luciferase system (#E1910, Promega).
Cell Cycle and Apoptosis for LNCaP cells
LNCaP were cultured in 6-well plate with 5× 10^5 cells/well, after incubated at 37 °C for […]
Cell cycle were determined after 48 h incubation by Cell Cycle Staining Kit (#CCS012, MULTI SCIENCES) using […]

PR = target: T2, PR (Homo sapiens, UniProt P06401); experiment: Luciferase reporter assay for PR (PC3 cells); format: cell-based; conditions: 0.4 μM, 10 nM progesterone
T2 construct: host or cells: PC3
T2 sequence (P06401 1-933): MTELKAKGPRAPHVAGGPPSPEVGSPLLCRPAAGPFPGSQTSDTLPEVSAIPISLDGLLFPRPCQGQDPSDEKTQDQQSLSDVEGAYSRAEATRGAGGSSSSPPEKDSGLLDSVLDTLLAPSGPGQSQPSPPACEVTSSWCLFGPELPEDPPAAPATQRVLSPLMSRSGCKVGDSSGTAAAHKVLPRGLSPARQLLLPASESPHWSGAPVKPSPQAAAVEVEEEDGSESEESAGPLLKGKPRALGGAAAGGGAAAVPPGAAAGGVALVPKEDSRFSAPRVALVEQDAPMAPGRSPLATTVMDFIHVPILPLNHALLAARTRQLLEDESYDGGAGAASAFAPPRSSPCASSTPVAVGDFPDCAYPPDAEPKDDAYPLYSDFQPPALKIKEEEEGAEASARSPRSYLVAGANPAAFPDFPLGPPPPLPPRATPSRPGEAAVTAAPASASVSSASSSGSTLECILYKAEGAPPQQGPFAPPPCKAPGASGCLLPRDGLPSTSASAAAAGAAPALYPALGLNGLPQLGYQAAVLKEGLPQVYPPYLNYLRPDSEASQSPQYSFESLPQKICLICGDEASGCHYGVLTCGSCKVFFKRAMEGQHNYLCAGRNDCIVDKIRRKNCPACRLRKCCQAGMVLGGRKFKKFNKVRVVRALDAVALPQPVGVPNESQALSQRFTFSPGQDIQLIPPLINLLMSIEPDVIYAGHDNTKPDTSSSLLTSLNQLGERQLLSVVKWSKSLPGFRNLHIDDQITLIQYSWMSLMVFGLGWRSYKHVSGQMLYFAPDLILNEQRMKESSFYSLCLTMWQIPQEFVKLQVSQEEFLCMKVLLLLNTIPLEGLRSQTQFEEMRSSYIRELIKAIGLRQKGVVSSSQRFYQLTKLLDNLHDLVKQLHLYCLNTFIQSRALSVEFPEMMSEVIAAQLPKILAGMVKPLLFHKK
Protocol: as §1
(§2) PC3, HeLa, and HEK293T cells were cultured using 5% CSS RPMI-1640, 5% CSS RPMI-1640 and 10% FBS DMEM media in 96-well plates for 24 h, respectively. For PR induction, PC3 (1 × 10^4 cells/well) were transfected with 50 ng pcDNA3-PRB (#89130, Addgene), 24 ng pGL4.36[luc2P MMTV Hygro] (Promega) and 5 ng Renilla using HG-TransGeneTM transfection reagent (#TG-10012, Genomeditech) for 4 h. For GR induction, Hela (1 × 10^4 cells/well) were transfected with 71 ng pCMV -GR11 (#89105, Addgene), 24 ng pGL4.36[luc2P MMTV Hygro] (Promega) and 5 ng Renilla using lip3000 transfection reagent (#L3000075, Thermofisher) for 24 h. For MR induction, HEK293T (1 × 10^4 cells/well) were transfected with 71 ng pCMV-MR gifted by Liu et al. 28, 24 ng of pGL4.36[luc2P MMTV Hygro] (Promega) and 5 ng Renilla using lip3000 transfec tion reagent for 24 h. For the antagonistic models, 10 nM /well progesterone for PC3 cells , 1 nM/well dexamethasone for HeLa, and 5 nM/well aldosterone for HEK293T cells were added to stimulate the cells. Meanwhile, each cell line was treated with a series concentration of compounds (0.4, 2, and 10 μM). For the agonistic models, the cells were directly treated with the compounds without any hormones. Endogenous hormones progesterone, dexamethasone, and aldosterone were considered as agonists for PR, GR, and MR, respectively. The luciferase activities were assessed using the Dual-Glo Luciferase system (#E1910, Promega). […]

[1] = target: wild type androgen receptor ligand-binding domain (AR LBD) (human); experiment: cross-linking + other: SAXS; chemical cross-linking coupled with mass spectrometry (CXMS) of purified AR LBD; ensemble refinement against the cross-link restraints; dimer to monomer ratio fitted; with and without M17-B15
MR = target: T3, MR (Homo sapiens, UniProt P08235); experiment: Luciferase reporter assay for MR (HEK293T cells); format: cell-based; conditions: 0.4–10 μM, 5 nM aldosterone
T3 construct: host or cells: HEK293T
T3 sequence (P08235 1-984): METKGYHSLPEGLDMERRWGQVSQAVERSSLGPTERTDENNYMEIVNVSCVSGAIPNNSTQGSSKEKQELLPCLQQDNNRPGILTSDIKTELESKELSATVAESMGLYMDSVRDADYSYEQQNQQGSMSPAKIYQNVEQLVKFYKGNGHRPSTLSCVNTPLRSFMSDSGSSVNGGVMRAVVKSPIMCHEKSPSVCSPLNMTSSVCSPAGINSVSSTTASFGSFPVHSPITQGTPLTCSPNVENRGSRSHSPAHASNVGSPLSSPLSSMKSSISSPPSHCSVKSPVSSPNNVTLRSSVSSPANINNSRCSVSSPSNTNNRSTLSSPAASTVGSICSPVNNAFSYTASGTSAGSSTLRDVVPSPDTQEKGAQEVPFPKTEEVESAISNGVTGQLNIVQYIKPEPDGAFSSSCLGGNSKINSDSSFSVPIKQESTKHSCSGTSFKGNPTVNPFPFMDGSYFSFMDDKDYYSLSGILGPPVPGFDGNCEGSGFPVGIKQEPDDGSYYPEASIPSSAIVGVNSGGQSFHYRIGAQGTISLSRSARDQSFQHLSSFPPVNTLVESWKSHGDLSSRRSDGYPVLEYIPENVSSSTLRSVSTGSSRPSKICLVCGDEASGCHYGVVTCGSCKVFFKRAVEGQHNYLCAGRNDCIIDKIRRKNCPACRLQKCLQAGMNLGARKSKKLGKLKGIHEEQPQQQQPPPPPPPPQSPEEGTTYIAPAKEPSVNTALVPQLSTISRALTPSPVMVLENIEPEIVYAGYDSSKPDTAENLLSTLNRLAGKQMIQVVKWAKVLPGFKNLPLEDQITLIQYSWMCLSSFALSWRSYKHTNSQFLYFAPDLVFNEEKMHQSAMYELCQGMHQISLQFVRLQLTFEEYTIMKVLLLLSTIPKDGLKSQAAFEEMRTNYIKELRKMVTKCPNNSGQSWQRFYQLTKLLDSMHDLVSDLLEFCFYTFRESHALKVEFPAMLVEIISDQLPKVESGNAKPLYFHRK
Protocol: as §1, §2

CC#C[C@]1(O)CC[C@H]2[C@@H]3CCC4=CC(=O)CCC4=C3[C@@H](c3ccc(N(C)C)cc3)C[C@@]21C [mifepristone]
GR antagonistic activity (GR): > 90%
PR antagonistic activity (PR): > 90%

wild type androgen receptor ligand-binding domain (AR LBD) (domain or fragment)
proportion of the dimer (with M17-B15) [1]: 15%
proportion of the dimer (without M17-B15) [1]: 20%

CC(=O)S[C@@H]1CC2=CC(=O)CC[C@]2(C)[C@H]2CC[C@@]3(C)[C@@H](CC[C@@]34CCC(=O)O4)[C@H]12 [abbolactone]
MR antagonistic activity (MR): potent

Source: article PMC10141604, “Small-Molecule Inhibition of Androgen Receptor Dimerization as a Strategy against Prostate Cancer” (ACS Central Science, 2023)
